Experimental data from PubChem BioAssay (NCI).
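96-well plates; 48 h exposure; 5 concentrations. Endpoints by linear interpolation between flanking doses. Not reached: highest tested concentration assigned. TGI: concentration producing complete growth inhibition.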

Legend:
Test in all cases: DTP human tumour cell line panel, 48 h
[1] = test system: CCRF-CEM leukemia
[2] = test system: HCT-15 colon
[3] = test system: HT29 colon
[4] = test system: IGROV1 ovarian
[5] = test system: K-562 leukemia
[6] = test system: MDA-MB-435
[7] = test system: NCI-H23 lung
[8] = test system: OVCAR-5 ovarian
[9] = test system: SW-620 colon
[10] = test system: MALME-3M melanoma
[11] = test system: MDA-N
[12] = test system: MOLT-4 leukemia

Row | SMILES | TGI [1] | TGI [2] | TGI [3] | TGI [4] | TGI [5] | TGI [6] | TGI [7] | TGI [8] | TGI [9] | TGI [10] | TGI [11] | TGI [12]
1 | O=C(O)Cc1ccc(Oc2nc3ccccc3nc2C(=O)O)cc1 | > 100 µM | > 100 µM | > 100 µM | > 100 µM | > 100 µM | > 100 µM | > 100 µM | > 100 µM | > 100 µM |  |  | 
2 | C/C=C\C(CC(=O)NCCC1CN(S(=O)(=O)C(F)(F)F)c2ccccc21)CC(=O)OC (centres undefined) | > 100 µM | > 100 µM | 51.3 µM | > 100 µM | > 100 µM |  | > 100 µM | > 100 µM | > 100 µM | 45.9 µM | > 100 µM | > 100 µM
3 | CCOC(=O)c1sc(N/N=C2\NC(=O)/C(=C/c3ccc([N+](=O)[O-])cc3)S2)nc1C | 35.4 µM | 48.5 µM | 51 µM | 35.4 µM |  | 77.3 µM | 80.5 µM | > 100 µM | > 100 µM |  | 56.2 µM | 31.1 µM
4 | c1ccc(C2=NOC3(c4ccccc4)SC4CCCCC4CN23)cc1 (centres undefined) | 31.6 µM | > 100 µM | > 100 µM | 32.8 µM | > 100 µM |  | > 100 µM | > 100 µM | > 100 µM | > 100 µM |  | 51.3 µM
5 | NC(=O)NC(=O)c1cccc(CNc2ccc(C(=O)N[C@@H](CCC(=O)O)C(=O)O)cc2)n1 |  | > 100 µM | > 100 µM | > 100 µM | > 100 µM | > 100 µM | > 100 µM | > 100 µM | > 100 µM |  | > 100 µM | > 100 µM
6 | CC=CCOc1cc(NC(=S)OC(C)C)ccc1Cl (mixture of isomers) | 64.3 µM | 33.7 µM | 28.7 µM | 43.2 µM |  | 49.9 µM | 35.1 µM | 44.5 µM | 35.3 µM | 29.6 µM | 35.4 µM | 38.8 µM
7 | Cc1ccc(S(=O)(=O)N2C[C@](O)(c3ccccc3)[C@H]2C)cc1 | > 100 µM | > 100 µM | > 100 µM | > 100 µM |  | > 100 µM | > 100 µM | > 100 µM | > 100 µM | > 100 µM | > 100 µM | > 100 µM
8 | CCCCc1ccc(Nc2nc(=S)c3[nH]cnc3[nH]2)cc1 | 47.9 µM | > 100 µM | 22 µM | 40.4 µM | > 100 µM | 48.1 µM | 51.7 µM | 43.5 µM | 60.9 µM | 37 µM |  | 22.2 µM
9 | Cc1c2c(n(CCc3ccccc3)c1C)N(C)N=C(C#N)S2(=O)=O |  | > 100 µM | > 100 µM | > 100 µM |  | > 100 µM | > 100 µM | > 100 µM | > 100 µM |  | > 100 µM | > 100 µM
10 | Cn1c(-c2cccs2)cc(-c2cccs2)c1-c1ccco1 | > 100 µM | > 100 µM | > 100 µM | > 100 µM | > 100 µM |  | > 25 µM | > 100 µM | > 100 µM |  | > 100 µM | > 100 µM
11 | CN(C)/N=C(/c1nc2ccc([N+](=O)[O-])cc2[nH]c1=O)C(O)c1ccco1 (centres undefined) | > 100 µM | > 100 µM | > 100 µM | > 100 µM | > 100 µM |  | > 100 µM | > 100 µM | > 100 µM | > 100 µM |  | > 100 µM
12 | C=C(C)CC1(O)C(=O)C(OCC)=C1OCC (centres undefined) | > 100 µM | > 100 µM | > 100 µM | > 100 µM |  | > 100 µM | > 100 µM | > 100 µM | > 100 µM | > 100 µM | > 100 µM | > 100 µM
13 | O=C1NC(N2CCCCC2)=N/C1=C\c1cccs1 | > 100 µM | > 100 µM | > 100 µM | > 100 µM |  | > 100 µM | > 100 µM | > 100 µM | > 100 µM | > 100 µM | > 100 µM | > 100 µM
14 | Cc1nc2c(nc1C)-c1c(c3c(n1C)C(=O)CCC3)C(=O)C2=O | 0.524 µM | 1.36 µM | 3.89 µM | 1.48 µM | > 100 µM | 0.353 µM | 2.85 µM | 2.72 µM | 0.534 µM | 0.669 µM | 0.322 µM | 
15 | O=c1[nH]c2cc([N+](=O)[O-])ccc2nc1/C(=N/Nc1ccccc1)C(O)c1ccc(C(O)/C(=N\Nc2ccccc2)c2cnc3cc([N+](=O)[O-])ccc3n2)cc1 (centres undefined) | > 100 µM |  | > 100 µM | > 100 µM | > 100 µM |  | > 100 µM | 72.9 µM | > 100 µM | > 100 µM |  | > 100 µM
16 | CN(CCO)c1nc(N)cc(=O)[nH]1 | > 100 µM | > 100 µM | > 100 µM | > 100 µM | > 100 µM |  | > 100 µM | > 100 µM | > 100 µM | > 100 µM |  | > 100 µM
17 | Cc1ccc2c(sc(-c3ccc4c(c3)sc(-c3ccc5c(c3)sc(-c3ccc(N(C)C)cc3)[n+]5C)[n+]4C)[n+]2C)c1S(=O)(=O)O (tested in a mixture with another compound) |  | > 100 µM | > 100 µM | > 100 µM | > 100 µM | > 100 µM | > 100 µM | > 100 µM | > 100 µM |  | > 100 µM | > 100 µM
18 | COc1ccc(C2Oc3cc(OC)c(O)c(C)c3[C@H]2C)cc1 (some centres undefined) | > 100 µM | > 100 µM | > 100 µM | > 100 µM | > 100 µM |  | > 100 µM | > 100 µM | > 100 µM | > 100 µM |  | 89.3 µM
19 | Cc1cc(S(=O)(=O)/N=C(\[N-]S(=O)(=O)c2ccc(Cl)cc2)[n+]2ccc(N(C)C)cc2)c(S)cc1Cl | > 100 µM | > 100 µM | > 100 µM | > 100 µM | > 100 µM | > 100 µM | > 100 µM | > 100 µM | > 100 µM |  | > 100 µM | 96.5 µM
20 | COc1cc(/C=C2/SC(c3ccccc3)N(c3ccccc3)C2=O)cc(OC)c1OC (centres undefined) | 42.2 µM | > 100 µM |  |  | > 100 µM | > 100 µM | > 100 µM | > 100 µM | > 100 µM | > 100 µM |  | > 100 µM
